Data taken from patent US12077503B2, “Substituted cyclic amides and their use as herbicides” (FMC CORPORATION, priority 2015, dated 2024).

Legend:
Type in all cases: in vivo
corn (Zea mays) = assay: Test A postemergence; conditions: Zea mays, post-emergence, 240 h
In short: (§1)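 Greenhouse, ~10 d after spray; visual injury vs untreated controls, 0 = no effect, 100 = complete control. Preemergence: directed soil spray over planted seeds. Postemergence: plants 2–10 cm, 1–2 leaf stage. Loam/sand blend. Compound in non-phytotoxic solvent with surfactant.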

[1] = test system: blackgrass (Alopecurus myosuroides); assay: Test A postemergence; conditions: Alopecurus myosuroides, post-emergence, 240 h
In short: as §1

[2] = test system: Galium (catchweed bedstraw, Galium aparine); assay: Test A postemergence; conditions: Galium, post-emergence, 240 h
In short: as §1

[3] = test system: barnyardgrass (Echinochloa crus-galli); assay: Test A postemergence; conditions: Echinochloa crus-galli, post-emergence, 240 h
In short: as §1

Kochia (Kochia scoparia) [4] = assay: Test A postemergence; conditions: Bassia scoparia, post-emergence, 240 h
In short: as §1

[5] = test system: ragweed (common ragweed, Ambrosia elatior); assay: Test A postemergence; conditions: Ambrosia artemisiifolia, post-emergence, 240 h
In short: as §1

[6] = test system: ryegrass, Italian (Italian ryegrass, Lolium multiflorum); assay: Test A postemergence; conditions: Lolium multiflorum, post-emergence, 240 h
In short: as §1

[7] = test system: giant foxtail (Setaria faberii); assay: Test A postemergence; conditions: Setaria faberi, post-emergence, 240 h
In short: as §1

[8] = test system: wheat (Triticum aestivum); assay: Test A postemergence; conditions: Triticum aestivum, post-emergence, 240 h
In short: as §1

[9] = test system: pigweed (Amaranthus retroflexus); assay: Test A postemergence; conditions: Amaranthus retroflexus, post-emergence, 240 h
In short: as §1

[10] = test system: barnyardgrass (Echinochloa crus-galli); assay: Test A preemergence; conditions: Echinochloa crus-galli, pre-emergence, 240 h, preemergence, 0 to 100 scale where 0 is no effect and 100 is complete control, read-out: Barnyardgrass plant response rating
In short: as §1

Kochia (Kochia scoparia) [11] = assay: Test A preemergence; conditions: Bassia scoparia, pre-emergence, 240 h, preemergence, 0 to 100 scale where 0 is no effect and 100 is complete control, read-out: Kochia plant response rating
In short: as §1

[12] = test system: ragweed (common ragweed, Ambrosia elatior); assay: Test A preemergence; conditions: Ambrosia artemisiifolia, pre-emergence, 240 h, preemergence, 0 to 100 scale where 0 is no effect and 100 is complete control, read-out: Ragweed plant response rating
In short: as §1

[13] = test system: ryegrass, Italian (Italian ryegrass, Lolium multiflorum); assay: Test A preemergence; conditions: Lolium multiflorum, pre-emergence, 240 h, preemergence, 0 to 100 scale where 0 is no effect and 100 is complete control, read-out: Ryegrass, Italian plant response rating
In short: as §1

[14] = test system: giant foxtail (Setaria faberii); assay: Test A preemergence; conditions: Setaria faberi, pre-emergence, 240 h, preemergence, 0 to 100 scale where 0 is no effect and 100 is complete control, read-out: Foxtail, Giant plant response rating
In short: as §1

[15] = test system: pigweed (Amaranthus retroflexus); assay: Test A preemergence; conditions: Amaranthus retroflexus, pre-emergence, 240 h, preemergence, 0 to 100 scale where 0 is no effect and 100 is complete control, read-out: Pigweed plant response rating
[16] = 125 g ai/ha, visual injury rating, approximately 10 d

CN1C[C@H](c2cccc(C(F)(F)F)c2)[C@@H](C(=O)Nc2ccc(F)cc2C(F)(F)F)C1=O [Compound 1250]
plant injury at 125 g/ha (corn (Zea mays); 125 g ai/ha, postemergence, visual injury vs untreated controls after approx. 10 d, 0 = no effect, 100 = complete control, read-out: Corn plant response rating (0 to 100 scale)): 40% | Corn plant response rating (crop injury, 0 = no effect, 100 = complete kill) at 500 g/ha (corn (Zea mays); Postemergence, 500 g ai/ha, visual injury, 0 to 100 scale (0 no effect, 100 complete control), approx. 10 d): 70% | pest or weed control at 125 g/ha ([1]; 125 g ai/ha, postemergence, visual injury vs untreated controls after approx. 10 d, 0 = no effect, 100 = complete control, read-out: Blackgrass plant response rating (0 to 100 scale)): 20% | pest or weed control at 500 g/ha ([1]; Postemergence, 500 g ai/ha, visual injury, 0 to 100 scale (0 no effect, 100 complete control), approx. 10 d, read-out: Plant response rating, Blackgrass): 60% | pest or weed control at 125 g/ha ([2]; 125 g ai/ha, postemergence, visual injury vs untreated controls after approx. 10 d, 0 = no effect, 100 = complete control, read-out: Galium plant response rating (0 to 100 scale)): 40% | pest or weed control at 500 g/ha ([2]; Postemergence, 500 g ai/ha, visual injury, 0 to 100 scale (0 no effect, 100 complete control), approx. 10 d, read-out: Plant response rating, Galium): 60% | pest or weed control at 125 g/ha ([3]; 125 g ai/ha, postemergence, visual injury vs untreated controls after approx. 10 d, 0 = no effect, 100 = complete control, read-out: Barnyardgrass plant response rating (0 to 100 scale)): 70% | pest or weed control at 500 g/ha ([3]; Postemergence, 500 g ai/ha, visual injury, 0 to 100 scale (0 no effect, 100 complete control), approx. 10 d, read-out: Plant response rating, Barnyardgrass): 90% | pest or weed control at 125 g/ha (Kochia (Kochia scoparia) [4]; 125 g ai/ha, postemergence, visual injury vs untreated controls after approx. 10 d, 0 = no effect, 100 = complete control, read-out: Kochia plant response rating (0 to 100 scale)): 0% | pest or weed control at 500 g/ha (Kochia (Kochia scoparia) [4]; Postemergence, 500 g ai/ha, visual injury, 0 to 100 scale (0 no effect, 100 complete control), approx. 10 d, read-out: Plant response rating, Kochia): 20% | pest or weed control at 125 g/ha ([5]; 125 g ai/ha, postemergence, visual injury vs untreated controls after approx. 10 d, 0 = no effect, 100 = complete control, read-out: Ragweed plant response rating (0 to 100 scale)): 0% | pest or weed control at 500 g/ha ([5]; Postemergence, 500 g ai/ha, visual injury, 0 to 100 scale (0 no effect, 100 complete control), approx. 10 d, read-out: Plant response rating, Ragweed): 0% | pest or weed control at 125 g/ha ([6]; 125 g ai/ha, postemergence, visual injury vs untreated controls after approx. 10 d, 0 = no effect, 100 = complete control, read-out: Ryegrass, Italian plant response rating (0 to 100 scale)): 20% | pest or weed control at 500 g/ha ([6]; Postemergence, 500 g ai/ha, visual injury, 0 to 100 scale (0 no effect, 100 complete control), approx. 10 d, read-out: Plant response rating, Ryegrass, Italian): 50% | pest or weed control at 125 g/ha ([7]; 125 g ai/ha, postemergence, visual injury vs untreated controls after approx. 10 d, 0 = no effect, 100 = complete control, read-out: Foxtail, Giant plant response rating (0 to 100 scale)): 80% | pest or weed control at 500 g/ha ([7]; Postemergence, 500 g ai/ha, visual injury, 0 to 100 scale (0 no effect, 100 complete control), approx. 10 d, read-out: Plant response rating, Foxtail, Giant): 80% | plant injury at 125 g/ha ([8]; 125 g ai/ha, postemergence, visual injury vs untreated controls after approx. 10 d, 0 = no effect, 100 = complete control, read-out: Wheat plant response rating (0 to 100 scale)): 40% | plant injury at 500 g/ha ([8]; Postemergence, 500 g ai/ha, visual injury, 0 to 100 scale (0 no effect, 100 complete control), approx. 10 d, read-out: Plant response rating, Wheat): 70% | pest or weed control at 125 g/ha ([9]; 125 g ai/ha, postemergence, visual injury vs untreated controls after approx. 10 d, 0 = no effect, 100 = complete control, read-out: Pigweed plant response rating (0 to 100 scale)): 0% | pest or weed control at 500 g/ha ([9]; Postemergence, 500 g ai/ha, visual injury, 0 to 100 scale (0 no effect, 100 complete control), approx. 10 d, read-out: Plant response rating, Pigweed): 30% | pest or weed control at 125 g/ha [10, 16]: 100% | pest or weed control at 500 g/ha ([10]; 500 g ai/ha): 100% | pest or weed control at 125 g/ha (Kochia (Kochia scoparia) [11]; [16]): 0% | pest or weed control at 500 g/ha (Kochia (Kochia scoparia) [11]; 500 g ai/ha): 40% | pest or weed control at 125 g/ha [12, 16]: 0% | pest or weed control at 500 g/ha ([12]; 500 g ai/ha): 0% | pest or weed control at 125 g/ha [13, 16]: 50% | pest or weed control at 500 g/ha ([13]; 500 g ai/ha): 50% | pest or weed control at 125 g/ha [14, 16]: 100% | pest or weed control at 500 g/ha ([14]; 500 g ai/ha): 100% | pest or weed control at 125 g/ha [15, 16]: 30% | pest or weed control at 500 g/ha ([15]; 500 g ai/ha): 30%
